Laboratory results as given in PubChem BioAssay AID652 (University of Pittsburgh Molecular Library Screening Center, 2007).
Calls of active or inactive are those of the source. How the calls were made is not given here.

Molecular target: Gag-Pol polyprotein (Human immunodeficiency virus type 1 group M subtype B (isolate HXB2)) (UniProt P04585)
Assay: concentration-response of HIV-1 RNase H blockers – biochemical, probe assessment, dose response (AID 652)
Details: HIV-1 RT RNase H enzymatic assay; for inhibition: at 50 µM, stronger effect = higher value

SMILES	inhibition [%]	IC50
COC(=O)c1ccc2c(c1)N(Cc1nc(-c3ccc(Cl)cc3)oc1C)C(=O)C1CCCN21 (stereo unspecified)	78.9	–
N#Cc1nc(-c2ccc(OCc3ccc(Cl)cc3)cc2)oc1NCc1cccnc1	99.4	–
O=c1c2ccccc2[se]n1-c1ccccc1	85.5	–
CC(C)Cn1c(SCC(=O)NC(=O)Nc2ccc3c(c2)OCCO3)nc2ccccc2c1=O	83.9	–
Cc1ccccc1N1C(=O)c2sc3nc4c(c(=O)n3c2C1=O)CCC4	98.7	2370 nM
CCOC(=O)N(c1ccccc1)P1(=S)OCCO1	85.5	–
Cc1nn2c(-c3cccc(NC(=O)CSc4nc5ccccc5o4)c3)nnc2c2ccccc12	98.2	–
O=C(c1ccccc1F)N1CCN(S(=O)(=O)c2ccc(S(=O)(=O)N3CCCCC3)cc2)CC1	95.5	–
CC(C)c1ccc2oc(-c3ccc(NC(=O)c4ncn[nH]4)cc3)nc2c1	92.7	–
O=c1ccc2cc3c([nH]c4ccc(Br)cc43)oc-2c1O	88.5	–
S=C(c1ccc(Cl)cc1)N1CCOCC1	73.5	4010 nM
Nc1c(C(=O)N2CCOCC2)sc(=S)n1-c1ccccc1	75.2	–
Cc1sc(-n2c(C)cc(/C=N/n3cnnc3)c2C)c(C#N)c1C	89.5	–
Cc1cc(C)c(C#N)c(=N)o1	83	–
CCCCn1c(SCC(=O)OCC)nc2c1c(=O)[nH]c(=O)n2C	55.7	> 50000 nM (inactive)
COc1ccc(Cn2nnnc2C(c2cccnc2)N2CCN(c3ccc(O)cc3)CC2)cc1 (stereo unspecified)	43	–
Cc1ccc(-n2sc3ccccc3c2=O)cc1S(=O)(=O)N1CCCCC1	96.9	–
Cc1nc(-c2cccc(S(=O)(=O)N3CCOCC3)c2)cs1	96.4	–
Fc1ccc(-c2ccc(-c3nn4c(-c5ccco5)nnc4s3)o2)cc1	88	–
Cc1ccc(/C=C/C2=Cc3c(sc(NC(=O)CSc4n[nH]c(N)n4)c3C#N)C(C)(C)C2)o1	91.1	–
Cc1cc(NC(=O)CSc2nc3cc4c(cc3c(=O)n2CCc2ccccc2)OCO4)no1	76.9	–
COCCn1c(SCCN2CCOCC2)nc2c1c(=O)[nH]c(=O)n2C	40	> 50000 nM (inactive)
CCOC(=O)c1c(NC(=O)c2ccc(-n3cnnn3)cc2)sc2c1CCCC2	88.3	–
CCc1ccc(NC(=O)CSc2nc3cc(C(=O)OC)ccc3c(=O)n2Cc2ccco2)cc1	94.7	–
CC1CCc2c(sc(NC(=O)c3ccc(Cn4cc(Br)cn4)o3)c2C(N)=O)C1 (stereo unspecified)	76.3	–
O=C1c2sc3nc4ccccc4n3c2C(=O)N1c1ccccc1Cl	98.9	–
CCc1ccccc1N1CSC2=C(C#N)C(c3cc(OC)c(OC)cc3OC)CC(=O)N2C1 (stereo unspecified)	98.3	–

SMILES	inhibition [%]	IC50
CC(C)C1N=C2c3ccccc3N=C(SCC(=O)c3ccc(O)c(O)c3)N2C1=O (stereo unspecified)	99.8	–
CCCCC(CC)Cn1c2nc3ccccc3nc2c2c(=N)oc(C)nc21 (stereo unspecified)	95.5	–
COc1ccc(OC)c(CCNC(=O)Cn2sc3nc(C)cc(C)c3c2=O)c1	91.6	–
COc1cccc(OCC(=O)Nc2c(C(=O)Nc3ccc(OC)cc3OC)oc3ccccc23)c1	88.5	–
COc1ccc(Br)cc1C1CC(=O)N2CN(C)CSC2=C1C#N (stereo unspecified)	84.1	–
COc1ccccc1CNC(=O)c1cc2c(=O)n(C)c3ccccc3c2n1C	86	–
c1ccc(-c2ccc(-c3ccccn3)nn2)nc1	52.4	–
CN1CSC2=C(C#N)C(c3cccc(OCc4ccccc4)c3)CC(=O)N2C1 (stereo unspecified)	89.7	–
Oc1ccc(-c2nc(-c3ccc(O)c(O)c3)cs2)cc1	101	2230 nM
COc1ccc(OC)c(/C=N/c2oc(-c3ccco3)c(-c3ccco3)c2C#N)c1	89.5	–
CCCCCCn1c(SCC(=O)OC)nc2c1c(=O)[nH]c(=O)n2C	79.6	3110 nM
COCCn1c(-c2ccc(-c3ccccc3Cl)o2)nc2c1c(=O)[nH]c(=O)n2CC(C)C	85	–
CCOC(=O)c1c(N)sn(-c2ccccc2C)c1=S	83.4	–
COC(=O)c1oc2ccc(Br)cc2c1NC(=O)c1ccccc1	94	–
CC1(C)Cc2[nH]c(=S)c(C#N)cc2CO1	71.1	–
Cc1cc(-c2nn3c(-c4ccccc4)nnc3s2)c2ccccc2n1	94.7	–
CCOc1ccc(S(=O)(=O)Nc2cc(Sc3ncn[nH]3)c3oc(=O)sc3c2)cc1	94.6	–
COC(=O)c1ccccc1S(=O)(=O)N(Cc1cc2cc3c(cc2[nH]c1=O)OCO3)C1CCCCC1	90.3	–
CC(C)CN(C(=O)COC(=O)c1ccc2c(c1)NC(=O)CS2)C1CCS(=O)(=O)C1 (stereo unspecified)	55.8	–
COc1cc(-c2nn3c(Cc4ccccc4)nnc3s2)cc(OC)c1OC	86	–
c1csc(-c2nn3c(C4COc5ccccc5O4)nnc3s2)c1 (stereo unspecified)	97.1	–
COc1cccc(OC)c1-c1nn2c(-c3cc(-c4ccccc4)n[nH]3)nnc2s1	63.5	–
Cc1cc(C(=O)CSc2nnc(-c3ccc(OC(F)F)cc3)o2)c(C)n1Cc1cccs1	74.6	–
C=CCOc1ccc(CC2C(=O)N(C)C(=O)N(C)C2=O)cc1	101	–
O=C(NC1CCS(=O)(=O)C1)c1c(NC(=O)C2COc3ccccc3O2)sc2c1CCCC2 (stereo unspecified)	88.4	–
COc1ccc(C2c3c(oc4ccc(Cl)cc4c3=O)C(=O)N2Cc2ccco2)cc1OC (stereo unspecified)	95.9	–
CCN1CCN(c2nc(C)nc3c2sc(=S)n3C)CC1	76.3	–

SMILES	inhibition [%]	IC50
O=C1CC(c2ccccc2)Cc2nc(N3CCc4ccccc43)ncc21 (stereo unspecified)	94.6	–
O=c1c(O)c(-c2ccc(O)cc2O)oc2cc(O)cc(O)c12	92.8	–
N#Cc1cc(-c2ccccc2)nn1-c1ccccc1	99.4	–
COc1ccccc1N1CSC2=C(C#N)C(c3ccc(SC)cc3)CC(=O)N2C1 (stereo unspecified)	97.1	–
O=C1CCCC(O)=C1C(C#Cc1ccccc1)C1=C(O)CCCC1=O	90.9	1080 nM
O=C(NC1CCCCC1)c1sc(=S)n2c1[nH]c(=O)c1ccccc12	96.5	–
CC(=O)N(Cc1cc(=O)[nH]c2ccccc12)c1cccc(C)c1	89.9	–
CCc1ccccc1N1CSC2=C(C#N)C(c3ccccc3F)CC(=O)N2C1 (stereo unspecified)	98.5	–
Cc1ccc(NC(=O)CSc2nnc(-c3ccc(S(=O)(=O)N4CCCC4)cc3)o2)cc1C	88.6	–
CN(C)c1ccc2c(c1)N=C(c1ccco1)OP2(=S)N1CCOCC1 (stereo unspecified)	92.9	–
Cc1cccc(C(=O)OCC(=O)Nc2ccc(N3CCCCC3)cc2)c1O	94.7	–
O=C(CSc1nc2sc3c(c2c(=O)n1-c1ccccc1)CCCC3)NCc1ccco1	77.8	–
COc1ccc(N2CSC3=C(C#N)C(c4ccc(OC)c(OC)c4)CC(=O)N3C2)c(OC)c1 (stereo unspecified)	79.7	–
CCC(C)c1ccc2oc(-c3ccc(NC(=O)c4ncn[nH]4)cc3)nc2c1 (stereo unspecified)	94.2	–
O=C(O)c1ccc2c(c1)NC(=O)C(N1CCCC1)S2 (stereo unspecified)	75.8	–
COc1ccc(N2CCN(Cc3cc(=O)oc4cc(-c5ccccc5)c(O)cc34)CC2)cc1	96.2	–
C=CCNC(=O)c1c(N)n(-c2ccc3c(c2)OCO3)c2nc3ccccc3nc12	55.2	–
CCCSc1nc2c(cnn2-c2ccc(Cl)cc2)c(=O)[nH]1	92.8	–
CCOc1cc(C2CC(=O)N3CN(C4CCCCC4)CSC3=C2C#N)ccc1O (stereo unspecified)	85.6	–
O=c1c2ccccc2sn1-c1cc(S(=O)(=O)N2CCOCC2)ccc1N1CCOCC1	84.4	–
CSc1ccc(C2C(C#N)=C(N)Oc3c2ccc(=O)c2c(C)oc(C)c32)cc1 (stereo unspecified)	77.4	5810 nM
Clc1ccccc1-c1nn2c(-c3ccncc3)nnc2s1	79.3	–
COC(=O)c1ccc2c(=O)[nH]c(CN3c4ccccc4CC3C)nc2c1 (stereo unspecified)	62.3	–
CCOC(=O)C1CCCN(C(=O)Cn2sc3nc(C)cc(C)c3c2=O)C1 (stereo unspecified)	69.6	–
Cc1cccc(NC(=O)Cn2c(C)c(C#N)c3ccccc32)c1C	89	–
Cc1ccccc1NC(=O)c1c(O)c2cccc3c2n(c1=O)CC3	84.6	–
COC(=O)N(c1ccc(OC)cc1)P1(=S)OCCC(C)O1 (stereo unspecified)	87.5	–

SMILES	inhibition [%]	IC50
Cc1cc(C)c2c(=O)n(CC(=O)NCCCN3CCOCC3)sc2n1	80.5	–
Cc1ccc(-c2cc(C(=O)NC3=NCCS3)c3cc(Br)ccc3n2)o1	92.4	–
CC(C)OC(=O)CSc1nnc(-c2ccc(C(C)(C)C)cc2)n1N	59.5	–
Cc1ccc(Cn2c(SCC(C)C)nc3c2c(=O)[nH]c(=O)n3C)cc1	91.8	–
O=C1CC(c2ccco2)Cc2nc(Nc3nc(-c4ccccc4)c4ccccc4n3)ncc21 (stereo unspecified)	53.7	–
COc1ccccc1N=c1oc2c(OC)cccc2cc1C(=O)NCc1ccco1	94.1	–
O=C(c1ccc2c3c(cccc13)C(=O)N(O)C2=O)N1CCCCC1	91.7	–
COc1ccc(S(=O)(=O)Nc2ccc(O)c3ccccc23)cc1	67.3	–
CCCc1nnc(NC(=O)CN2C(=O)c3ccccc3S2(=O)=O)s1	75.7	–
N#Cc1c(NC(=O)c2ccc(Cn3cc(Br)cn3)o2)sc2c1CCCCCC2	98	–
CCOc1cc(C2C(C#N)=C(N)SC(N)=C2C#N)ccc1OCCN1CCOCC1	41.5	31500 nM
CCOC(=O)c1c(C2COc3ccccc3O2)csc1NC(=O)c1ccco1 (stereo unspecified)	96.6	–
Cc1cccc(C)c1NC(=O)CSCC(=O)c1ccc(O)c(O)c1	94.7	–
c1ccc(Cc2nn3c(Cn4nnc5ccccc54)nnc3s2)cc1	96.1	–
COc1ccc(-c2nsc(SCC(=O)Nc3cc(C)on3)n2)cc1	96.6	–
CCC1CCCCN1S(=O)(=O)c1ccc(S(=O)(=O)N2CCN(S(=O)(=O)CC)CC2)cc1 (stereo unspecified)	93	–
Cc1nn(CCC#N)c2c1P(=S)(N1CCCC1)OC(c1ccc(F)cc1)=N2 (stereo unspecified)	90.2	–
NC(=O)c1cc(-c2ccccc2)sc1NC(=O)Cc1ccc(S(=O)(=O)N2CCOCC2)s1	83.3	–
Cc1ccccc1OCc1nc(-c2ccc(NC(=O)c3ccc4c(c3)OCO4)cc2)no1	90.2	–
S=C(c1ccc(-c2ccccc2Cl)o1)N1CCOCC1	92.6	926 nM
Cc1cc(NC(=O)CSc2nc(C3CC3)nc3sc4c(c23)CCC(C)C4)no1 (stereo unspecified)	94.1	–
O=C(Nc1nc(-c2ccncc2)cs1)c1ccco1	87.1	–
O=C(CCSCCC(=O)NCc1ccco1)NCc1ccco1	98.4	953 nM
C=CCn1c(=O)c(C(=O)Nc2nnc(C)s2)c(O)c2ccccc21	84.5	–
